From US20250114511A1, “BLOOD PERFUSION DEVICE TO REDUCE SECONDARY INFECTION IN HOSPITAL” (SEOUL NATIONAL UNIVERSITY R&DB FOUNDATION, priority 2022, published 2025)
“Also recorded” adds a separate entry of the source. Read-outs that look alike come from different tables or passages of the source.

Key:
[1] = system: PMNs isolated from healthy volunteers; assay: Chemotaxis to 100 nM fMLF of healthy volunteer PMNs exposed to septic shock patient plasma; type: cell-based, human; conditions: 10 μM CsH
Protocol: The effect of bead-anti-mtFP mixture treatment on PMN chemotaxis rescue was analyzed. PMS was isolated from blood samples obtained from healthy volunteers and exposed to untreated plasma from septic shock patients for 30 minutes in a 10-rpm rotator at 37° C. […] In order to estimate the capacity of non-FPR1-mediated PMN chemotaxis, separate PMNs exposed to bead anti-mtFP mixture-treated plasma were pretreated with 10 μM CsH 15 minutes prior to the chemotaxis experiment.
The inventors of the present disclosure investigated the chemotactic restoration effect of the anti-mtFP cocktail on PMNs by exposing PMNs from healthy volunteers to the plasma of septic shock patients treated with the anti-mtFP cocktail and then comparing PMN chemotaxis with plasma that had not received the anti-mtFP cocktail treatment.

[2] = system: PMNs isolated from septic shock patients with secondary infection; assay: Chemotaxis to 100 nM fMLF of PMNs from septic shock patients with secondary infection exposed to their own plasma; type: cell-based, human; conditions: 50 pg/mL recombinant LTB4 added to bead-anti-mtFP mixture treated plasma, 90 minutes
[3] = system: human polymorphonuclear cells (PMN); conditions: previous studies of the inventors; cited from earlier work
[4] = system: human polymorphonuclear cells (PMN)
Protocol: PMN chemotaxis was assessed by using multiScreen 96-well plates consisting of a 3-μm pore membrane (MAMIC3S10, Merck Millipore, Darmstadt, Germany). After preplanned treatment with ND6 or patient plasma, isolated human PMNs were centrifuged at 200 g for 10 minutes at 4° C. Afterwards, the PMN pellet was resuspended in Dulbecco's modified Eagle medium (DMEM, 11885-084, Thermo Fisher) containing 10% fetal bovine serum (FBS, F2442, Sigma-Aldrich). Before use, FBS was inactivated by heating at 56° C. for 1 hour. PMNs were placed in the upper chamber of the plate (0.1×10^6 PMNs at 75 μL per well), and medium containing 100 nM fMLF was placed in the lower chamber (150 μL per well). In medium without ND6 or fMLF, 0.1% DMSO was added.
Plates were incubated for 60 minutes in an incubator at 37° C. with 5% carbon dioxide (CO2). […] Afterwards, the contents were transferred to a 96-well plate, and fluorescence was measured at an excitation/emission wavelength of 480/520 nm with a cut-off of 515 nm. The number of migrated PMNs was calculated by using a standard curve derived from known PMN numbers. […]
After exposure to 100 nM ND6 for 30 minutes, PMNs were centrifuged at 220 g for 10 minutes at 4° C., and the supernatant was discarded. […] PMN chemotaxis at 30 and 90 minutes was measured as the number of PMNs migrated during 60-minute incubation between 30 and 90 minutes and 90 and 150 minutes, respectively.

[5] = system: FPR1; assay: FPR1 expression on PMN membranes by flow cytometry; type: cell-based, human; conditions: 100 nM ND6 for 30 minutes
Protocol: FPR1 expression on PMN membranes and the amount of CaMK2 in the homogenized PMN pellet were also detected by flow cytometry. In order to detect FPR1 on PMN membranes, PMNs (1.0×10^6 in 200 μL) were incubated with FITC-conjugated anti-human FPR1 antibody (2 μL, FAB3744F, R&D Systems, Minneapolis, MN) for 30 minutes at room temperature in the dark. FITC-conjugated mouse IgG2a, κ isotype control antibody (400210, BioLegend, San Diego, CA) was used as a negative control. After washing twice, fluorescence was measured. APC-conjugated anti-CaMK2 antibody (2 μL, ab225178, Abcam, Cambridge, UK) was used to detect the amount of CaMK2 in 200 μL of homogenized PMN pellet obtained by homogenization of 1.0×10^6/l mL PMN for 30 seconds at 4° C. and centrifugation at 20,000 g for 10 minutes. FPR1 expression in PMN membranes and the amount of CaMK2 in homogenized PMN pellets were quantified as mean fluorescence intensity (MFI) by using FlowJo version 10.0 (FlowJo, LLC, Ashland, OR). At least three independent experiments were performed.

[6] = target: T1, formyl peptide receptor 1 (FPR1) (Homo sapiens, UniProt P21462); assay: PMN intracellular calcium mobilization (ER calcium depletion and calcium influx, fura2-AM)
T1 sequence (P21462 1-350): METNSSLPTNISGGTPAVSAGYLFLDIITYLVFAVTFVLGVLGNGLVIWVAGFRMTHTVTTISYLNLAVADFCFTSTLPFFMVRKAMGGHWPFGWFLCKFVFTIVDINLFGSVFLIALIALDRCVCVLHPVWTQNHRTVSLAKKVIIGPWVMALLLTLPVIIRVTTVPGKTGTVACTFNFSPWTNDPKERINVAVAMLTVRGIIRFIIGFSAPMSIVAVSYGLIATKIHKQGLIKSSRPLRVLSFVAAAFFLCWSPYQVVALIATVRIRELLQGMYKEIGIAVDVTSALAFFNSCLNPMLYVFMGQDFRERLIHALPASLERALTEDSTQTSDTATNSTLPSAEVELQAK
Protocol: Calcium mobilization within PMN cells was measured according to the following method. The separated PMN pellet was resuspended in pH 7.4 hydroxyethyl piperazine ethane sulfonic acid (HEPES) buffer solution. This HEPES buffer solution includes 20 mM HEPES, 140 mM NaCl, 5 mM potassium chloride (KCl), 1 mM magnesium chloride (MgCl2), 1 mM calcium chloride (CaCl2)), 10 mM glucose and 0.1% bovine serum albumin (BSA, A2058 Sigma-Aldrich). PMNs were loaded with fura2-AM (F1221, Thermo Fisher, Waltham, MA) for 45 minutes at 37° C.
Fluorescence was measured at 505 nm with 340/380 nm dual-wavelength excitation at 37° C. by using a spectrofluorometer (FluoroMax Plus-C, Horiba, Ltd., Kyoto, Japan). For the quantitative measurement of endoplasmic reticulum (ER) calcium depletion, PMNs were centrifuged at 200 g for 10 minutes at 4° C. PMN pellets were then resuspended in a calcium-free HEPES buffer solution including 0.3 mM ethylene glycol-bis(2-aminoethylether)-N,N,N′,N′-tetraacetic acid (EGTA, E3889, Sigma-Aldrich, St. Louis, MO), and stimulated with ND6 and fMLF or with ND6 alone. 0.1% dimethyl sulfoxide (DMSO) was added to the medium without ND6 or fMLF. After endoplasmic reticulum calcium was depleted, 1.8 mM CaCl2) was added to induce cytoplasmic calcium influx. Endoplasmic reticulum calcium depletion and calcium influx were assessed by measuring the 340 nm/380 nm ratio and quantified as AUC over 150 seconds (AUC150) and AUC over 100 seconds (AUC100), respectively. […]
In order to investigate which steps of intracellular calcium mobilization stimulated by FPR1 agonists directly correlate with PMN chemotaxis, the inventors of the present disclosure quantitatively measured the amounts of endoplasmic reticulum (ER) calcium depletion and subsequent calcium influx into the cytoplasm in isolated human PMNs obtained from healthy volunteers. […] The area under the curve (AUC) of ER calcium depletion over 150 seconds was calculated to quantify the amount of ER calcium depletion stimulated by ND6 (AUC150 primary) and fMLF (AUC150 secondary), respectively. […]

## C/C=C/C[C@@H](C)[C@@H](O)[C@H]1C(=O)N[C@@H](CC)C(=O)N(C)CC(=O)N(C)[C@@H](CC(C)C)C(=O)N[C@@H](C(C)C)C(=O)N(C)[C@@H](CC(C)C)C(=O)N[C@@H](C)C(=O)N[C@H](C)C(=O)N(C)[C@@H](CC(C)C)C(=O)N(C)[C@@H](CC(C)C)C(=O)N(C)[C@H](C(C)C)C(=O)N1C [CsH, cyclosporine H]
[1]
  chemotaxis of CsH-treated PMNs versus CsH-free PMNs exposed to untreated plasma: not significantly different

## CCCCC/C=C\C[C@@H](O)/C=C/C=C/C=C\[C@@H](O)CCCC(=O)O [recombinant LTB4, leukotriene B4]
[2]
  restoration of PMN chemotaxis compared to PMN exposed to untreated plasma: effectively restored PMN chemotaxis
[2]; listed as recombinant leukotriene B4 (LTB4)
  restoration of PMN chemotaxis compared to PMN exposed to untreated plasma: significantly restored PMN chemotaxis

## N-formyl-methionine-leucine-phenylalanine [fMLF]
[3]
  most potent concentration to induce FPR1-mediated PMN chemotaxis: 100 nM

## N-formyl-methionine-methionine-tyrosine-alanine-leucine-phenylalanine [ND6]
[4]; 100 nM ND6 for 30 minutes
  PMN chemotaxis in response to 100 nM fMLF: inhibited
[4]; ND6-treated PMNs, 100, 10, 5 nM
  PMN chemotaxis in response to 100 nM fMLF: dose-dependently inhibited
[5]
  FPR1 expression in PMN membranes (MFI): reduced FPR1 expression
[6]; 100 nM ND6 for 30 minutes or more
  ER calcium depletion and calcium influx in response to 100 nM fMLF: inhibited; also recorded: did not completely inhibit
[6]; 100 nM, 10 nM, 5 nM ND6, then 100 nM fMLF
  inhibition of fMLF-stimulated secondary ER calcium depletion and subsequent calcium influx: dose-dependently inhibited
